The values below are quoted from earlier work in US10863739B2 (AgroFresh Inc., priority 2015, dated 2020).

For the data set the following is noted: gas.

On to `CC1=CC1` [1-MCP, 1-Methylcyclopropene], for which the “flammable above a concentration” value is listed as > 13,300 ppm.
